Results from patent publication US12078642B2, “Methods for evaluating and improving cognitive function” (THE UNIVERSITY OF MELBOURNE, priority 2017, dated 2024).
Where “and” joins values, the source holds several entries; their conditions need not be identical. Identical values can stand only once.

System: old mice
Test: Barnes Maze cognitive function (memory) test
Format: in vivo, mouse
Settings: for Time searching for the escape hatch in the target zone after CE 18:1 versus before (FIG. 11): old mice (24 months), same mice before and after CE 18:1 enriched diet, 470 mg per kg
Description: The cognitive function of the mice was tested using a Barnes Maze. The Barnes maze makes use of a mouse's nature to avoid bright lights and open spaces. The Barnes maze was a white 150 cm disk with 36 evenly spaced holes. The disk is elevated 64 cm above the ground and four visual cues—two 3D cues and two 2D cues—are placed in four quadrants, denoting four possible escape holes. The escape box was placed under the assigned escape hole and fastened by tape. Four portable floodlights were used to evenly illuminate the maze and a light meter was used to ensure consistent brightness of 3400 to 3600 lux. Prior to the beginning of a trial, the maze and the escape box were cleaned with 80% ethanol to remove olfactory cues.
The mouse was placed in the centre of the maze under a cover. The cover was then retracted using a pulley system and the mouse was allowed to explore the maze for four minutes to find and enter the escape hole. If the mouse entered the escape hole in less than four minutes, the time was recorded and the floodlights switched off. If the mouse had not entered the escape hole after four minutes, the mouse was gently guided to the escape hole and lights were switched off. The mouse was allowed to remain in the escape box for one minute before it was returned to its home box outside the experimental room. For the probe trial, the escape box was removed and the trial length was shortened to 3 minutes (180 seconds). The duration required, distance traveled, and latency to the assigned escape hole was recorded using topscan lite 2.0. The time the mouse spent in the “target zone” (the 5 holes consisting of the assigned escape hole and the two holes on either side) searching for the assigned escape hole was also recorded.
Trials were conducted over seven days; day 1 contained a single habituation trial, days 2-6 contained 3 acquisition trials a day and day 7 contained a single probe trial. […]
The CE 18:1 oral administration consisted of 20 mg CE 18:1 suspended in 0.5 g of raspberry flavoured agar jelly. To prepare the CE 18:1 enriched jelly, 4 g of agar powder and 0.1 g NaOH pellets was dissolved in 13 ml raspberry flavoured cordial, with MilliQ water added q.s. to form a total of 200 mL jelly solution. To the jelly solution, 400 mg of cholesteryl oleate was suspended in 40 ml of jelly to form the CE 18:1 oral administration.
Seven old mice (24 months old) were subjected to the Barnes Maze as described above, and the time the mice spent investigating the “target zone” during the probe trial was investigated. The same seven old mice were then fed 0.5 g of the CE 18:1 enriched jelly once a day (20 mg CE 18:1, 4% w/w), which correlated to a CE 18:1 dosage rate of 470 mg per kg of bodyweight. The mice were the subjected to the Barnes Maze as described above, and the time the mice spent investigating the “target zone” during the probe trial was investigated.

[1] = individual old mice (24 months), probe trial of 180 s, after 0.5 g CE 18:1 enriched jelly once a day orally (20 mg CE 18:1, 470 mg per kg bodyweight), one value per mouse

Compound: CCCCCCCC/C=C\CCCCCCCC(=O)O[C@H]1CC[C@@]2(C)C(=CC[C@H]3[C@@H]4CC[C@H]([C@H](C)CCCC(C)C)[C@@]4(C)CC[C@@H]32)C1 [CE 18:1, cholesteryl oleate]
- Percentage of time spent at target zone out of 180 sec (%), After CE 18:1, AVERAGE (average of seven old mice (24 months), probe trial, after CE 18:1 jelly orally 470 mg per kg, before CE 18:1: 4.70%): 9.5%
- Duration at target zone (s), After CE 18:1, AVERAGE (average of seven old mice (24 months), probe trial, after CE 18:1 jelly orally 470 mg per kg, before CE 18:1: 8.47 s): 17.10 s
- Duration at target zone (s), After CE 18:1 [1]: 16.00 s and 16.48 s and 28.68 s and 4.84 s and 23.40 s and 21.28 s and 9.04 s
- Percentage of time spent at target zone out of 180 sec (%), After CE 18:1 [1]: 8.89% and 9.16% and 15.93% and 2.69% and 13.00% and 11.82% and 5.02%
- Time searching for the escape hatch in the target zone after CE 18:1 versus before (FIG. 11) (probe trial): statistical increase in time searching for the escape hatch in the target zone
- Time searching for the escape hatch in the target zone after CE 18:1 versus before (FIG. 11) (probe trial, listed as cholesteryl oleate): improved cognitive function in mice
- Time searching for the escape hatch in the target zone after CE 18:1 versus before (FIG. 11) (probe trial, listed as cholesteryl oleate (CE 18:1)): spent more time investigating the target zone
